Experimental data taken from paper PMC6466835 (ACS Medicinal Chemistry Letters, 2019).

Tests used:
[1] = test system: supercoiled plasmid pBR322; test: DNA cleavage assay; assay type: biochemical
[2] = test system: double-stranded oligodeoxynucleotide (dsDNA); test: ESI-MS analysis of DNA alkylation; assay type: biochemical; details: 50 μM compound, 2 μM dsDNA
[3] = Parallel artificial membrane permeation assay; assay type: in vitro ADME; details: incubation for 1 h, PBS pH 7.4
[4] = test system: BxPC-3 pancreatic carcinoma cells; test: MTT cytotoxicity assay, BxPC-3; assay type: cell-based; details: BxPC-3 cells, L-1 versus D-1
[5] = 2 h at 37 °C, highest concentration 50 μM

Row | SMILES | DNA cleavage activity ([1]; 2 h at 37 °C, 5 and 50 μM) | DNA modifications detected by ESI-MS ([2]; 2 h at 37 °C) | DNA modifications detected by ESI-MS ([2]; 18 h at 37 °C) | DNA cleavage activity [1, 5] | PAMPA permeation, in words [3] | DNA cleavage activity ([1]; 18 h at 37 °C, 5 and 50 μM) | further results
1 | CCCCN1CCCC(Cl)C1 (stereo not shown) [Compound 1] | inactive | exclusively the signal corresponding to the unreacted DNA substrate | formation of adducts and of abasic lesions |  |  |  | 
2 | CC1(C)CC(Cl)CN(Cc2ccccc2)C1 (stereo not shown) [Compound 3] |  |  |  | caused the conversion of supercoiled DNA into the OC form | barely detected in the acceptor compartment |  | 
3 | O=C(O)CCCc1ccc(N(CCCl)CCCl)cc1 [chlorambucil, reference compound] | inactive at all concentrations |  |  |  |  |  | 
4 | CCCCN1CCC[C@H](Cl)C1 [D-1] |  |  |  |  |  | inactive even after prolonged incubation | 
5 | CCCCN1CCC[C@@H](Cl)C1 [L-1] |  |  |  |  |  | more active than the racemate 1 | eudismic ratio [4]: ~40
6 | CCCCN1CC(Cl)CC(C)(C)C1 (stereo not shown) [Compound 2] |  | additional peaks corresponding to 3-chloropiperidine–DNA adducts were detected | formation of adducts and of abasic lesions | caused the conversion of supercoiled DNA into the OC form | barely detected in the acceptor compartment |  | 
